Experimental data taken from PubChem BioAssay AID720512 (Broad Institute, 2013).
Activity calls are given as the source filed them. The rule behind the calls is not given here.

What follows are molecules tested against Toxin B (TcdB) glycohydrolase, Clostridioides difficile 630 (assay: TcdB glycohydrolase inhibitors, dose response, biochemical, cherry-pick, plate reader (AID 720512)). Details: recombinant TcdB glycohydrolase activity.
For COc1cc(/C=N/NC(=O)c2cccc([N+](=O)[O-])c2)ccc1O, the AC50 was > 39 µM (inactive).
COc1cc(/C=C/C(=O)OCC(=O)NC(=O)NC(C)(C)C)ccc1O was tested, and the AC50 was > 39 µM (inactive).
Work on COc1ccc2nc(NNC(=O)C3COc4ccccc4O3)sc2c1 (stereo unspecified) yielded an AC50 of 3.04 µM.

Same assay, conditions: recombinant TcdB glycohydrolase activity, at 19.5 µM (top of the series)
COc1ccc(CNC(=O)C2=CC(c3ccc(C)cc3)=NS(=O)(=O)N2C)cc1 was tested, and the “activity change, negative = inhibition” value was “inactive”.
With O=C(Nc1cc(S(=O)(=O)N2CCOCC2)ccc1N1CCOCC1)c1ccccc1Cl the “activity change, negative = inhibition” value was “inactive”.
For Nc1ccc(OC(=O)Nc2ccc(O)cc2)cc1, the “activity change, negative = inhibition” value was “inactive”.
In the case of Cc1[nH]ccc2c1[nH]c1cc(=O)ccc12, the “activity change, negative = inhibition” value is reported as “inactive”.
For Cc1ccc(C(=O)OCC(=O)c2cc(C)n(CC3CCCO3)c2C)cc1 (stereo unspecified), the “activity change, negative = inhibition” value was “inactive”.
In the case of Cc1ccc(C2=NS(=O)(=O)N(C)C(C(=O)NCc3ccc(F)cc3)=C2)cc1, the “activity change, negative = inhibition” value is reported as “inactive”.
Cc1cc(C(=O)CSc2nc(N)cc(=O)[nH]2)c(C)n1CC1CCCO1 (stereo unspecified) was tested, and the “activity change, negative = inhibition” value was “inactive”.
In the case of CC(C)CNC(=O)c1c(F)c(F)c(F)c(F)c1F, the “activity change, negative = inhibition” value is reported as “inactive”.
For O=C(NCc1cccnc1)c1cc(C2CCCCN2S(=O)(=O)c2cccc3cccnc23)on1 (stereo unspecified), the “activity change, negative = inhibition” value was “inactive”.
C[C@H]1CN([C@@H](C)CO)S(=O)(=O)c2ccc(-c3ccncc3)cc2O[C@@H]1CN(C)Cc1ccc(Oc2ccccc2)cc1 was tested, and the “activity change, negative = inhibition” value was “inactive”.
With Cc1ccc(/C=C(\C#N)C(=O)Nc2ccccn2)o1 the “activity change, negative = inhibition” value was “inactive”.
With COC(=O)c1sc2nc(SCc3ccccc3C)n(N)c(=O)c2c1C the “activity change, negative = inhibition” value was “inactive”.
With O=C(NNc1nc2c(F)cccc2s1)C1COc2ccccc2O1 (stereo unspecified) the “activity change, negative = inhibition” value was “inactive”.
In the case of CCc1cc(/C(Cc2ccccn2)=N\O)c(O)cc1O, the “activity change, negative = inhibition” value is reported as “inactive”.
For CC(=O)N1CCN(c2ccc(S(C)(=O)=O)cc2[N+](=O)[O-])CC1, the “activity change, negative = inhibition” value was “inactive”.
For Cc1[nH]c(-c2ccc(F)cc2)cc1C(=O)N1CCN(c2ccccc2)CC1, the “activity change, negative = inhibition” value was “inactive”.
In the case of Nc1ccc(C(=O)c2ccc3c(c2)OCCO3)cc1N, the “activity change, negative = inhibition” value is reported as “inactive”.
With Fc1cccc(NC(=S)NNc2c3ccccc3nc3ccccc23)c1 the “activity change, negative = inhibition” value was “inactive”.
CCOC(=O)c1sc(=S)[nH]c1C was tested, and the “activity change, negative = inhibition” value was “inactive”.
O=C1CSC(=Nc2ccc(O)cc2)N1 was tested, and the “activity change, negative = inhibition” value was “inactive”.
In the case of O=C(C[C@H]1CC[C@@H]2[C@H](COC[C@@H](O)CN2C(=O)Nc2ccc(Cl)c(Cl)c2)O1)NCc1ccncc1, the “activity change, negative = inhibition” value is reported as “inactive”.
C/C(=N\NC(N)=S)c1ccc2c(c1)OCCO2 was tested, and the “activity change, negative = inhibition” value was “inactive”.
In the case of Cc1ccc(S(=O)(=O)Oc2ccc(/C=N/NC(=O)c3nn(C)cc3[N+](=O)[O-])cc2)cc1, the “activity change, negative = inhibition” value is reported as “inactive”.
For NC(=O)CC(NC(=O)c1ccccc1)c1ccc(NCCc2ccc(F)cc2)c([N+](=O)[O-])c1 (stereo unspecified), the “activity change, negative = inhibition” value was “inactive”.
For CCS(=O)(=O)c1ccc2oc(Nc3ccc(C(C)(C)C)cc3)nc2c1, the “activity change, negative = inhibition” value was “inactive”.
With CCNC(=O)[C@H]1[C@H](CO)[C@H]2Cn3c(ccc(-c4ccccc4)c3=O)[C@H]2N1CC the “activity change, negative = inhibition” value was “inactive”.
With O=c1c2oc3nc4c(cc3c2ncn1CCCc1ccccc1)CCCC4 the “activity change, negative = inhibition” value was “inactive”.
CCN(CC)S(=O)(=O)c1cc(C(=O)Nc2cccnc2Cl)ccc1Cl was tested, and the “activity change, negative = inhibition” value was “inactive”.
C[C@H](CO)N1C[C@H](C)[C@@H](CN(C)C(=O)Nc2ccc(C(F)(F)F)cc2)Oc2c(cccc2N(C)C)C1=O was tested, and the “activity change, negative = inhibition” value was “inactive”.
For O=c1c2ccccc2oc2ccc(NCCCN3CCOCC3)cc12, the “activity change, negative = inhibition” value was “inactive”.
For CN1CCN(C(CNC(=O)c2ccc(Br)o2)c2ccc(F)cc2)CC1 (stereo unspecified), the “activity change, negative = inhibition” value was “inactive”.
With O=C(COc1ccc(/C=N/NC(=O)c2ccc(O)cc2)cc1)Nc1cccc([N+](=O)[O-])c1 the “activity change, negative = inhibition” value was “inactive”.
With CCc1ccc(NC(=O)c2cc(C)on2)cc1 the “activity change, negative = inhibition” value was “inactive”.
In the case of Cc1[nH]c(=O)c(C#N)c2c1CCCC2, the “activity change, negative = inhibition” value is reported as “inactive”.
With Cc1cnc(C(=O)OCC(=O)N2C(C)CCCC2C)cn1 (stereo unspecified) the “activity change, negative = inhibition” value was “inactive”.
With COc1ccc(C(O)(C(C)C)C(CN2CCOCC2)c2ccccc2)cc1 (stereo unspecified) the “activity change, negative = inhibition” value was “inactive”.
In the case of Cn1ncc(Cl)c1C(=O)N/N=C/c1cccc(OC2CSC2)c1, the “activity change, negative = inhibition” value is reported as “inactive”.
With Cc1cc(C)c(C)c(S(=O)(=O)N2CCCCC2C(=O)O)c1C (stereo unspecified) the “activity change, negative = inhibition” value was “inactive”.
COc1cc(/C=N/NC(=O)c2c(C)nc3ccc(Cl)cn23)cc(OC)c1OC was tested, and the “activity change, negative = inhibition” value was “inactive”.
COCCN(C(=O)C(C)C)c1nnc(-c2ccc(C(C)(C)C)cc2)s1 was tested, and the “activity change, negative = inhibition” value was “inactive”.
In the case of O=C(CSc1cccc2cccnc12)N/N=C/c1ccc(F)cc1, the “activity change, negative = inhibition” value is reported as “inactive”.
For O=C(CCC(=O)N1CCSc2ccccc21)Nc1cccc(F)c1, the “activity change, negative = inhibition” value was “inactive”.
COc1cc(/C=N/NC2=NCCCCC2)ccc1O was tested, and the “activity change, negative = inhibition” value was “inactive”.
O=C(CSc1ccc2nnc(-c3ccc(F)cc3)n2n1)N1CCOCC1 was tested, and the “activity change, negative = inhibition” value was “inactive”.
O=C(Nc1ccccc1F)N(Cc1ccc(F)cc1)Cc1nc2ccccc2c(=O)[nH]1 was tested, and the “activity change, negative = inhibition” value was “inactive”.
In the case of CCOc1cc(NC(=S)NCC2CCCO2)c(OCC)cc1NC(=O)c1ccc(F)cc1 (stereo unspecified), the “activity change, negative = inhibition” value is reported as “inactive”.
With CCCc1cc(=O)oc2c3c(cc(OCC(=O)NCCCn4ccnc4)c12)OC(C)(C)CC3 the “activity change, negative = inhibition” value was “inactive”.
For O=C(C[C@@H]1CC[C@H]2[C@@H](COC[C@@H](O)CN2Cc2ccc(Oc3ccccc3)cc2)O1)Nc1nccs1, the “activity change, negative = inhibition” value was “inactive”.
O=C(Nc1ccc(O)cc1)/C(=C\c1ccncc1)NC(=O)c1ccccc1 was tested, and the “activity change, negative = inhibition” value was “inactive”.
In the case of CC(C)(C)c1cc(Cl)c(O)c(NC(=S)NC(=O)c2cccnc2)c1, the “activity change, negative = inhibition” value is reported as “inactive”.
COC(=O)c1ccc(NC(=S)Nc2ccc(O)cc2)cc1 was tested, and the “activity change, negative = inhibition” value was “inactive”.
CCOC(=O)c1ccc2ncc(-c3ccccc3)nc2c1 was tested, and the “activity change, negative = inhibition” value was “inactive”.
For COc1ccc(SC[C@H](C)CN2CC[C@H](NC(=O)OCc3ccccc3)CCC2=O)cc1, the “activity change, negative = inhibition” value was “inactive”.
COc1ccc(/C=C\c2onc(C)c2S(=O)(=O)N2CCC(C(=O)NCCC(C)C)CC2)cc1 was tested, and the “activity change, negative = inhibition” value was “inactive”.
In the case of Cc1cc(=O)oc2c(N)c(O)ccc12, the “activity change, negative = inhibition” value is reported as “inactive”.
For CC(C)OC(=O)c1cccc(C(=O)O)n1, the “activity change, negative = inhibition” value was “inactive”.
Cc1nc(S(=O)(=O)N(C)Cc2ccccc2)c(C#N)c(C)c1Cl was tested, and the “activity change, negative = inhibition” value was “inactive”.
CCOC(=O)c1nnn(-c2nonc2N)c1-c1ccc(F)cc1 was tested, and the “activity change, negative = inhibition” value was “inactive”.
With COc1cccc(C(=O)Nc2ccc3c(c2)C(=O)N(C)[C@@H]2CC[C@H](CC(=O)NCCCN4CCOCC4)O[C@@H]2CO3)c1 the “activity change, negative = inhibition” value was “inactive”.
With O=C(NCc1ccccc1)C1Cc2c(-c3cccc(F)c3)ccnc2O1 (stereo unspecified) the “activity change, negative = inhibition” value was “inactive”.
In the case of COc1cc(/C=N/NC(=O)c2nnn(-c3nonc3N)c2C(C)C)ccc1O, the “activity change, negative = inhibition” value is reported as “inactive”.
CNC(=O)C1CCN(S(=O)(=O)c2c(C)noc2/C=C/c2ccc(OC)cc2)CC1 was tested, and the “activity change, negative = inhibition” value was “inactive”.
O=C(Nc1ccc(N2CCOCC2)c(Cl)c1)c1ccc2c(c1)OCCO2 was tested, and the “activity change, negative = inhibition” value was “inactive”.
